Measured values taken from patent US7595300B2, “7-quinolyl ketolide antibacterial agents” (priority 2005, dated 2009).
Where two headings read alike, the source gives them in different places.

Assays:
[1] = test system: anesthetized rats; assay: Cardiovascular safety, QT interval in anesthetized rats, i.v. bolus; format: in vivo, rat; conditions: rat
Protocol: Total doses of drug (0.47, 0.94, 1.88, 3.75, 7.5, and 15 mg/kg) or equivalent volumes of vehicle were administered incrementally as an i.v. bolus to groups of 6 anesthetized rats or guinea pigs at 0, 15, 30, 45, 60, and 75 minutes. Hemodynamic parameters including mean arterial pressure (MAP) and heart rate (HR), and ECG parameters (QT and PR intervals and QRS duration) were recorded. For the rat, injection of vehicle gave a 16% increase in QT interval over baseline. For the guinea pig, injection of vehicle gave a 3% increase in QT interval over baseline.

[2] = in vivo; conditions: male, beagle, dog, iv; for AUC: AUCtot
Protocol: The dosing route was an intravenous infusion jugular vein access). The infusion was accomplished using a CADD Prizm® ambulatory infusion pump attached to a jacket worn by the dog. The dose duration for the intravenous infusion was 30 min for all doses administered, except the last dose (30 mg/kg) where the infusion period was extended to 45 min to accommodate the larger dose volume required for this dose. The vehicle dose and diluent for the test article was 0.05-M sodium citrate in sterile water for injection.
There was one treatment group of four non-naïve dogs and the study was comprised of both pharmacokinetic and telemetry phases, as summarized in the dose administration table for compound (III) (Table 16) below. At least one week was given between dosings to allow clearance of the drug.
For the pharmacokinetic (PK) phase, the blood collection intervals were: predose, 10, 20, 30, (end dose time), 35, 45, 60, 90, 150, 270, 390, 510, 1440, and 2880 min relative to the start of the infusion. Whole blood (˜2 mL) was collected into Vacutainerss' (BD, Franklin, N.J.) containing sodium heparin as the anticoagulant agent. Blood samples were centrifuged at a speed of 3000 rpm, a temperature of 4° C. and a run time of 10 min. Plasma samples were transferred to amber glass vials and analyzed by LC/MS/MS to determine drug concentrations.

[3] = test system: human hepG2 hepatocytes; assay: In vitro hepatotoxicity, resazurin and Nile Red staining; format: cell-based; conditions: 100 μM
Protocol: In one experiment, hepatotoxicity was estimated by overnight incubation of compounds at 3, 10, 30, 100, or 300 μM with cultured rat or human hepG2 hepatocytes, followed by staining of the cells with resazurin to measure viability or with Nile Red to measure steatosis. The minimal drug concentration at which changes in dye binding were observed was noted as the minimal effective concentration. The compound of formula (VIII) wherein Z=3-quinolyl affected […] and steatosis in human HepG2 hepatocytes at 30 μM.

[4] = test system: cryopreserved human hepatocytes; conditions: 4 h
Source text: In a second experiment, the hepatotoxicity of compound (III) was estimated using cryopreserved human hepatocytes pooled from four donors, measuring leakage of cellular lactate dehydrogenase (LDH). Each donor was selected for the study based on the activity of cytochrome P450 (phase I) and uridine diphosphoglucuronosyl transferases (phase II). Hepatocytes were initially prepared from human livers by collagenase perfusion and subsequently cryogenically frozen. Viable cryopreserved hepatocytes were enriched in accordance with BD Biosciences Discovery Labware SOP HP-10. Hepatocytes were rapidly thawed, pooled and incubated in Williams' E medium at a density of 2×10^6 cells/ml at 37° C. in an incubator for 30 min. After incubation, the viable cells were separated with 24% Percoll gradient and resuspended in WME at a density of 1×10^6 cells/ml. Initial viability was determined by trypan blue exclusion. Hepatocytes were incubated in a 24-well plate and each well contained 0.25×10^6 cells in 0.5 ml of WME medium. Three wells were used for determination of total LDH activity (cells+media) and the background activity (incubation media only) at the 0 time point. Briefly, a 100 μl aliquot of cell suspensions from these wells was immediately taken and rapidly centrifuged at 14,000 rpm for 15 seconds. The supernatants were transferred to microcentrifuge tubes and stored at ≦4° C. for measurement of LDH activity present in medium at the 0 time point. Another 100 μl aliquot of cell suspension from same wells was removed, mixed with 100 μl of 0.4% Triton and stored at ≦4° C. for measurement of total LDH activity.
Hepatocytes in other wells were incubated with test article at the concentrations of 200, 67, 22, 7.4, 2.5 and 0.82 μM. […] Hepatocytes were exposed to the test substance and the positive control for 4 hours. After incubation, 100 μl aliquots of cell suspensions were taken and rapidly centrifuged at 14,000 rpm for 15 seconds. The supernatants were transferred to microcentrifuge tubes and stored at ≦4° C. for measurement of LDH activity in incubation medium.
LDH activity in both total (medium+cells) and medium was determined by monitoring the enzymatic formation of NADH from NAD^+ in the presence of L-lactic acid. Briefly, post-centrifugation supernatants were diluted 1:40 with phosphate-buffered saline (pH 7.4). A 100 μl aliquot was mixed with 100 μl LDH reagent containing 7.5 mM NAD^+, 50 mM L-lactic acid in 250 mM Tris-HCl buffer (pH 8.9) in a 96-well plate. The increase in fluorescence due to the formation of NADH were kinetically monitored at Ext. 360 nm, Em. 460 nm, using a Fluorescence plate reader. The percent LDH leakage from cells was calculated by comparing incubation medium values with total LDH activity (see Equation below). The cell viability at each concentration of test articles was reported. % LDH leakage=(LDH activity in medium sample/total LDH activity)*100 The data are summarized in Table 17.

[5] = Pharmacokinetics in the mouse, plasma and lung tissue; format: in vivo; conditions: oral gavage 10 mg/kg
Protocol: The pharmacokinetics of compounds of formula (VIII) and compounds of formula (II) and (III) were measured in the mouse. Compounds were administered either intravenously (i.v.) at 1 mg/kg, or per oral gavage (p.o.) at 10 mg/kg. Plasma samples were taken and analyzed by LC/MS-MS. For lung tissue pharmacokinetics, lungs were removed and homogenized, followed by analyzis by LC/MS-MS.

With `CC1CC(N(C)C)C(O)C(O[C@@H]2[C@@H](C)C(=O)[C@](C)(F)C(=O)O[C@H](CCF)[C@@]3(C)OC(=O)N[C@@H]3[C@@H](C)C(=O)[C@H](C)C[C@@]2(C)OC/C=C/c2ccc3cccnc3c2)O1` (some centres unmarked) [Compound (III), 6-O-(1-(7-quinolyl)-3-propenyl)-11-amino-11-deoxy-3-(descladinosyl)-3-oxo-2,15-difluoroerythromycin A-11,12-cyclic carbamate] the “effect on the QT interval in the rat” value [1] was “did not prolong the QT interval”, the Tmax ([2]; 11 mg/kg) was 0.46 ± 0.08 h and the half-life ([2]; 11 mg/kg) was 5.36 ± 0.4 h. It also gave an AUC ([2]; 11 mg/kg) of 33900 ± 3190 ng·h/mL, a Cmax ([2]; 11 mg/kg, Mean Cmax) of 6000 ± 1130 ng/mL and an AUCtot ([2]; 15 mg/kg) of 36047 ± 22104 ng·h/mL. The “mean Cmax” value ([2]; 15 mg/kg) was 6206 ± 3144 ng/mL, the AUC ([2]; 15 mg/kg) was 43900 ± 23100 ng·h/mL and the Cmax ([2]; 15 mg/kg, mean Cmax) was 7520 ± 3310 ng/mL. For the same compound, the “effects on metabolic stability and steatosis” value [3] was “No effects”, the “LDH leakage (%)” value ([4]; 0.82 μM) was 6.1 ± 0.63% and the “Viability (%)” value ([4]; 0.82 μM) was 94 ± 0.63%. For the same compound, the “LDH leakage (%)” value ([4]; 2.5 μM) was 3.9 ± 2.8%, the “Viability (%)” value ([4]; 2.5 μM) was 96 ± 2.8% and the “LDH leakage (%)” value ([4]; 7.4 μM) was 10 ± 2.9%. For the same compound, the “Viability (%)” value ([4]; 7.4 μM) was 90 ± 2.9%, the “LDH leakage (%)” value ([4]; 22 μM) was 12 ± 0.74% and the “Viability (%)” value ([4]; 22 μM) was 88 ± 0.74%. For the same compound, the “LDH leakage (%)” value ([4]; 67 μM) was 6.7 ± 1.3%, the “Viability (%)” value ([4]; 67 μM) was 93 ± 1.3% and the “LDH leakage (%)” value ([4]; 200 μM) was 7.6 ± 4.2%. The “Viability (%)” value ([4]; 200 μM) was 92 ± 4.2%, the “Lung AUC” value ([5]; mouse lung tissue) was 45.9 ug/mL-h and the “Lung Cmax” value ([5]; mouse lung tissue) was 8700 ng/mL. It also gave an AUC ([5]; mouse plasma) of 16200 ng·h/mL and a Cmax ([5]; mouse plasma) of 3000 ng/mL.
